Experimental findings from patent US20250361234A1 (NICO THERAPEUTICS, INC., priority 2022, published 2025) are described below.

Usually IC50 stands for the concentration at which inhibition is half-maximal. A lower IC50 goes with higher potency.

For this test, the target named is T1, full-length SARM1 (FL-SARM1) (Homo sapiens, UniProt Q6SZW1).
T1 sequence (Q6SZW1 28-724): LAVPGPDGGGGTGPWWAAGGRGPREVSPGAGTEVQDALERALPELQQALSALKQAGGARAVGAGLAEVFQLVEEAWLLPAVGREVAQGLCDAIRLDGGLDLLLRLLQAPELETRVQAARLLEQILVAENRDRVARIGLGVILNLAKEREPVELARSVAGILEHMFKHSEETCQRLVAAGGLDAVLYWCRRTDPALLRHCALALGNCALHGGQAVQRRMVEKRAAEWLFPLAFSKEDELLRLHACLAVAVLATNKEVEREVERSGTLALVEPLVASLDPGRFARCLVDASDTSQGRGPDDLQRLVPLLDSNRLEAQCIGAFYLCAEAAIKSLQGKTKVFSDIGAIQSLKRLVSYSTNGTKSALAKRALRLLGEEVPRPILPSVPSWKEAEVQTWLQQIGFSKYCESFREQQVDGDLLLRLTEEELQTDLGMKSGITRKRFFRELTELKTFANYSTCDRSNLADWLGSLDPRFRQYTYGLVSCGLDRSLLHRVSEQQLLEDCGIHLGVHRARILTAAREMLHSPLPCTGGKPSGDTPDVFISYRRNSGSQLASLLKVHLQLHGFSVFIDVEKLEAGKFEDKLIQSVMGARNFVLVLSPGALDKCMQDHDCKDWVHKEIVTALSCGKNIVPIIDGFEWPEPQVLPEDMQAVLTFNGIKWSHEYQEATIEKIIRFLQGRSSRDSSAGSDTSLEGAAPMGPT
The experiment in a line: FL-SARM1 cellular lysate assay (NAD/NADH-Glo readout of remaining NAD+). To be noted: SARM1 cellular lysate from transfected HEK293T cells, NAD+ and NMN, 11 point curve.

Method: Preparation of full-length SARM1 (FL-SARM1) lysate: HEK293T cells (ATCC: CRL-3216) were grown on 150 mm TC-treated dishes to 80-90% confluency in complete DMEM (Thermo Fisher: 11965175) supplemented with 10% HI-FBS (VWR: 10802-772), 1× Pen/Strep (Thermo Fisher: 15140122), 1× NEAA (Thermo Fisher: 1140050), 1× glutamax (Thermo Fisher: 35050061), and 1 mM sodium pyruvate (Thermo Fisher: 11360070)) at 37° C. and 5% CO2. One hour prior to transfection, the media was replaced with fresh, 37° C. complete DMEM (20 mL per one 150 mm dish) supplemented with additional 10 mM glucose (Alfa Aesar AAJ60067EQE). Per one 150 mm dish, 30 μg FL-SARM1 (SEQ. ID. 1; cloned in-house) plasmid was dissolved in 1 mL DMEM at ambient temperature and were mixed by inverting the tube 8-10 times. 90 μL of GenJet™ in vitro DNA transfection reagent (Ver2) was dissolved in 1 mL DMEM at ambient temperature and were mixed by inverting the tube 8-10 times. The plasmid and transfection agent solutions were combined, mixed by 8-10 inversions and incubated for 10 minutes at ambient temperature. 2 mL of this transfection mixture was added to each dish containing HEK293T cells as prepared above followed by a gentle mixing of 4-5 horizontal rotations. The dishes were incubated at 37° C. and 5% CO2 for 24 h. The dishes were removed from the incubator, the medium was aspirated and the cells were scraped off using cell scrapers in ice-cold 1× PBS (5 mL/dish, Thermo Fisher Scientific 10010023). The collected cells were centrifuged at 300 g for 5 minutes at 4° C. The supernatant was aspirated and the pellet was frozen at −80° C. until needed. The cell pellet from 30 dishes was dissolved in 30 mL 1× PBS supplemented with 4 tablets of Complete, Mini EDTA-free protease inhibitor cocktail at 4° C. This mixture was sonicated on ice for 10 minutes at 50% amplitude with a 1 second on/1 second off interval using a Model 120 sonicator (Thermo Fisher Scientific, FB120110). The lysate was centrifuged at 16000 g for 10 minutes at 4° C.
To a white 384-well Proxiplate (PerkinElmer, PE-6008280) was added 50 nL/well of a DMSO solution containing test compounds followed by 7.5 mL/well of a 0.067 mg/mL solution of SARM1 cellular lysate in reaction buffer (DPBS containing CHAPSO (0.1%) and fatty acid free BSA (0.032%)). The plate was centrifuged for 1 minute at 1000 RPM and then placed in an incubator at 23° C. for 15 minutes. To the wells were added 2.5 mL/well of a solution containing 40 mM NAD^+ and 4 mM NMN in reaction buffer. The plate was centrifuged for 1 min at 1000 RPM, the plate was sealed and placed in an incubator at 23° C. for 3.5 hours before adding 3.5 mL/well of NAD/NADH-Glo™ solution (preparation as described by Promega using the extended detection protocol). The plate was centrifuged for 1 minute at 1000 RPM and then incubated at 23° C. for 20 minutes. 1 mL/well of a 3.625 mM solution of menadione in DMSO was added and the plate was centrifuged for 1 minute at 1000 RPM. […] Percent inhibition was calculated as follows:
IC50 values were calculated from an 11 point curve using ½ log dilutions using a four-parameter logistic regression curve fit.

Regarding `Cc1ccc(NC(=O)N2C[C@@H](C)CC[C@H]2C)cc1-c1cncc(F)c1` (racemic) [Example 8, cis-N-(3-(5-fluoropyridin-3-yl)-4-methylphenyl)-2,5-dimethylpiperidine-1-carboxamide], the IC50 was 2.6 µM (Activity (μM)) and 1 to 10 µM (Activity).
As for `Cc1ccc(NC(=O)N2C[C@@H]3C[C@H]2C[C@H]3OC(F)F)cc1-c1cncc(F)c1` (racemic) [Example 31, cis-5-(difluoromethoxy)-N-(3-(5-fluoropyridin-3-yl)-4-methylphenyl)-2-azabicyclo[2.2.1]heptane-2-carboxamide], the half-maximal inhibitory concentration (IC50) was 28.6 µM (Activity (μM)) and over 10 µM (Activity).
The like results for `Cc1ccc(NC(=O)N2CCCCC2C)cc1-c1cncc(F)c1` (racemic) [Example 32, N-(3-(5-fluoropyridin-3-yl)-4-methylphenyl)-2-methylpiperidine-1-carboxamide] were, in that order, 1.9 µM and 1 to 10 µM.
Consider `Cc1ccc(NC(=O)C2CCCN2C2CCC2)cc1-c1cncc(F)c1` (racemic) [Example 103, 1-cyclobutyl-N-[3-(5-fluoropyridin-3-yl)-4-methylphenyl]pyrrolidine-2-carboxamide], for which the IC50 is 17.7 µM (Activity (μM)) and over 10 µM (Activity).
`Cc1ccc(NC(=O)C2CCCN2c2ncccn2)cc1-c1cncc(F)c1` (racemic) [Example 104, N-[3-(5-fluoropyridin-3-yl)-4-methylphenyl]-1-pyrimidin-2-ylpyrrolidine-2-carboxamide]: the IC50 is 26.4 µM (Activity (μM)) and over 10 µM (Activity).
Take `Cc1ccc(NC(=O)C2CCCN2C(=O)OC(C)(C)C)cc1-c1cncc(F)c1` (racemic) [Example 105, tert-butyl 2-[[3-(5-fluoropyridin-3-yl)-4-methylphenyl]carbamoyl]pyrrolidine-1-carboxylate]: the IC50 is, setting by setting: (Activity (μM)) 13.5 µM; (Activity) over 10 µM.
The like results for `Cc1ccc(NC(=O)N2CC[C@@H](C)C[C@H]2C)cc1-c1cncc(F)c1` (racemic) [Example 119, cis-N-(3-(5-fluoropyridin-3-yl)-4-methylphenyl)-2,4-dimethylpiperidine-1-carboxamide] were, in that order, 1.1 µM and 1 to 10 µM.
The corresponding values for `Cc1ccc(NC(=O)N2C[C@@H]3C[C@H]2C[C@@H]3C#N)cc1-c1cncc(F)c1` (relative stereo) [Example 24, trans-5-cyano-N-(3-(5-fluoropyridin-3-yl)-4-methylphenyl)-2-azabicyclo[2.2.1]heptane-2-carboxamide] are 3.3 µM and 1 to 10 µM.
As to `COC(=O)[C@H]1C[C@@H]2C[C@H](C1)N2C(=O)Nc1ccc(C)c(-c2cncc(F)c2)c1` (single isomer, unassigned) [Example 12, trans-methyl 6-((3-(5-fluoropyridin-3-yl)-4-methylphenyl)carbamoyl)-6-azabicyclo[3.1.1]heptane-3-carboxylate], the IC50 is, setting by setting: (Activity (μM)) 3.7 µM; (Activity) 1 to 10 µM.
In the case of `COC(=O)[C@H]1CC2C[C@@H](C1)N2C(=O)Nc1ccc(C)c(-c2cncc(F)c2)c1` (single isomer, unassigned) [Example 13, cis-methyl 6-((3-(5-fluoropyridin-3-yl)-4-methylphenyl)carbamoyl)-6-azabicyclo[3.1.1]heptane-3-carboxylate], the IC50 is, setting by setting: (Activity (μM)) 3.4 µM; (Activity) 1 to 10 µM.
In the case of `Cc1ccc(NC(=O)N2C3CC2CC(C)(O)C3)cc1-c1cncc(F)c1` (single isomer, unassigned) [Example 46, N-(3-(5-fluoropyridin-3-yl)-4-methylphenyl)-3-hydroxy-3-methyl-6-azabicyclo[3.1.1]heptane-6-carboxamide], the IC50 (Activity (μM)) is 8.7 µM and the concentration for half-maximal inhibition (IC50) (Activity) was in the range of 1 to 10 µM.
The corresponding values for `C[C@@H]1CC2C[C@@H](C1)N2C(=O)Nc1ccc(C2CC2)c(-c2cncc(F)c2)c1` (single isomer, unassigned) [Example 50, trans-N-(4-cyclopropyl-3-(5-fluoropyridin-3-yl)phenyl)-3-methyl-6-azabicyclo[3.1.1]heptane-6-carboxamide] are 0.2 µM and 0.0001 to 1 µM.
With `C[C@@H]1CC2C[C@H](C1)N2C(=O)Nc1ccc(C2CC2)c(-c2cncc(F)c2)c1` (single isomer, unassigned) [Example 51, cis-N-(4-cyclopropyl-3-(5-fluoropyridin-3-yl)phenyl)-3-methyl-6-azabicyclo[3.1.1]heptane-6-carboxamide], the IC50 is, setting by setting: (Activity (μM)) 0.2 µM; (Activity) 0.0001 to 1 µM.
The like results for `C[C@@H]1CC2C[C@@H](C1)N2C(=O)Nc1ccc(C(F)(F)F)c(-c2cncc(F)c2)c1` (single isomer, unassigned) [Example 52, trans-N-(3-(5-fluoropyridin-3-yl)-4-(trifluoromethyl)phenyl)-3-methyl-6-azabicyclo[3.1.1]heptane-6-carboxamide] were, in that order, 0.08 µM and 0.0001 to 1 µM.
On to `C[C@@H]1CC2C[C@H](C1)N2C(=O)Nc1ccc(C(F)(F)F)c(-c2cncc(F)c2)c1` (single isomer, unassigned) [Example 53, cis-N-(3-(5-fluoropyridin-3-yl)-4-(trifluoromethyl)phenyl)-3-methyl-6-azabicyclo[3.1.1]heptane-6-carboxamide], for which the IC50 is, setting by setting: (Activity (μM)) 0.06 µM; (Activity) 0.0001 to 1 µM.
The corresponding values for `C[C@@H]1CC2C[C@@H](C1)N2C(=O)Nc1ccc(F)c(-c2cncc(F)c2)c1` (single isomer, unassigned) [Example 57, trans-N-(4-fluoro-3-(5-fluoropyridin-3-yl)phenyl)-3-methyl-6-azabicyclo[3.1.1]heptane-6-carboxamide] are 0.3 µM and 0.0001 to 1 µM.
Turning to `C[C@@H]1CC2C[C@H](C1)N2C(=O)Nc1ccc(F)c(-c2cncc(F)c2)c1` (single isomer, unassigned) [Example 58, cis-N-(4-fluoro-3-(5-fluoropyridin-3-yl)phenyl)-3-methyl-6-azabicyclo[3.1.1]heptane-6-carboxamide], the IC50 is, setting by setting: (Activity (μM)) 0.3 µM; (Activity) 0.0001 to 1 µM.
The like results for `C[C@@H]1CC2C[C@@H](C1)N2C(=O)Nc1ccc(C#N)c(-c2cncc(F)c2)c1` (single isomer, unassigned) [Example 77, trans-N-(4-cyano-3-(5-fluoropyridin-3-yl)phenyl)-3-methyl-6-azabicyclo[3.1.1]heptane-6-carboxamide] were, in that order, 0.4 µM and 0.0001 to 1 µM.
`C[C@H]1CC2C[C@@H](C1)N2C(=O)Nc1ccc(C#N)c(-c2cncc(F)c2)c1` (single isomer, unassigned) [Example 78, cis-N-(4-cyano-3-(5-fluoropyridin-3-yl)phenyl)-3-methyl-6-azabicyclo[3.1.1]heptane-6-carboxamide] gave an IC50 (Activity (μM)) of 0.1 µM and an IC50 (Activity) of 0.0001 to 1 µM.
With `C[C@@H]1CC2C[C@@H](C1)N2C(=O)Nc1ccc(Cl)c(-c2cncc(F)c2)c1` (single isomer, unassigned) [Example 79, trans-N-(4-chloro-3-(5-fluoropyridin-3-yl)phenyl)-3-methyl-6-azabicyclo[3.1.1]heptane-6-carboxamide], the IC50 was 0.1 µM (Activity (μM)) and 0.0001 to 1 µM (Activity).
